pEC50, pIC50: −log10 of the molar value.
Key:
[1] = target: C-C chemokine receptor type 5 (Homo sapiens, UniProt P51681); assay: Inhibition of human CCR5 expressed in CHO cells assessed as inhibition of RANTES-stimulated [35S]GTPgammaS binding; type: functional, cell-based
[2] = system: Human immunodeficiency virus 1; assay: Antiviral activity against R5 tropic HIV1 BaL infected in human PBMC; type: functional, organism-based; conditions: Human immunodeficiency virus 1, BaL
[3] = target: hERG (KCNH2) (Homo sapiens, UniProt Q12809); assay: Inhibition of human ERG at 1 uM
[4] = Cytotoxicity against human PBMC; type: cell-based

C-C chemokine receptor type 5, sequence (P51681 whole entry): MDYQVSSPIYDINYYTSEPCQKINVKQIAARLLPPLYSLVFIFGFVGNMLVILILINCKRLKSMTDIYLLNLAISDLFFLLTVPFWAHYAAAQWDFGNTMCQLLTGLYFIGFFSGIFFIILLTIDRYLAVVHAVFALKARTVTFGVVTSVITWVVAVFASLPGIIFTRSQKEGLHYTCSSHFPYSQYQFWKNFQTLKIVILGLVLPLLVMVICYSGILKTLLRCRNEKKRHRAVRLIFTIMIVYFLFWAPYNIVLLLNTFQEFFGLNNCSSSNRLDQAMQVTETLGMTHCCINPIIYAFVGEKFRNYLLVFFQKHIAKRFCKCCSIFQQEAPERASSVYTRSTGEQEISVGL
hERG (KCNH2), sequence (Q12809 whole entry): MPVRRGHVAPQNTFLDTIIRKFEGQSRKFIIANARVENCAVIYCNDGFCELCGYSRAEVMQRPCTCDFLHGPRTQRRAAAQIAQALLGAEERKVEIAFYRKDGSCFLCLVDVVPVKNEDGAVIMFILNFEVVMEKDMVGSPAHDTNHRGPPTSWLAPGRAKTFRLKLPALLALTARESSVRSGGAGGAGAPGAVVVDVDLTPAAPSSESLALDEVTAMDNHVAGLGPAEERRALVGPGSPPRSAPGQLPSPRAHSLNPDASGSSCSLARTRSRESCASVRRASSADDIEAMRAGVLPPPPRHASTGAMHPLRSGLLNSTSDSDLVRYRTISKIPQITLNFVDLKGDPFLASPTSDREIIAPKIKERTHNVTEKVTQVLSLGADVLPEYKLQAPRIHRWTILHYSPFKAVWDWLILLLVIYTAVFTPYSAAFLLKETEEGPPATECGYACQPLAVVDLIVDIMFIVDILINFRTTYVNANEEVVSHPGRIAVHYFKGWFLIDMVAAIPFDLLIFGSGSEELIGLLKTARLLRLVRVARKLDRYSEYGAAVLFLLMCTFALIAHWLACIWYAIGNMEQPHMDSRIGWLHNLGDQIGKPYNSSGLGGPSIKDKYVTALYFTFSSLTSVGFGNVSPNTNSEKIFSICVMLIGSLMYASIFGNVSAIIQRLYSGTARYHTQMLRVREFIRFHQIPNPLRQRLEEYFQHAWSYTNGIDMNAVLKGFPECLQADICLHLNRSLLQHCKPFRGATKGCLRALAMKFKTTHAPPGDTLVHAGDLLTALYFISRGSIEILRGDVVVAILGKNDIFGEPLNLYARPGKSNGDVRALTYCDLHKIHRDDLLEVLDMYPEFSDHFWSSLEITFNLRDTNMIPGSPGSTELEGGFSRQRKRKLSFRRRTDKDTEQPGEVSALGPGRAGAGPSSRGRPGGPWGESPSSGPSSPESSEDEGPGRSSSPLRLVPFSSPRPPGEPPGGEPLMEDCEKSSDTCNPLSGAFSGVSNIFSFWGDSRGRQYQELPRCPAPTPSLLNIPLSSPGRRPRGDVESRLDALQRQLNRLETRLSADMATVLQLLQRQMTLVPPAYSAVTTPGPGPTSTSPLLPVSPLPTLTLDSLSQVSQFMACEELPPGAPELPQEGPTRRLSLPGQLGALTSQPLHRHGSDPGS

pIC50 [1] | pEC50 [2] | Structure (SMILES) | inhibition at 1 µM [3] | CC50 [4]
6.50 | < 7.00 | C=CCN(C(=O)OCc1ccc([N+](=O)[O-])cc1)C1CCN(C[C@H]2CN(C(=O)C3CCCC3)C[C@]2(O)c2ccc(OC)cc2)CC1 | – | –
7.52 | < 7.00 | C=CCN(C(=O)OCc1ccc([N+](=O)[O-])cc1)C1CCN(C[C@H]2CN(C(=O)C3CCCC3)C[C@]2(O)c2ccc(F)cc2)CC1 | – | –
8.05 | > 9.40 | C=CCN(C(=O)OCc1ccc([N+](=O)[O-])cc1)C1CCN(C[C@H]2CN(C(=O)C3CCCC3)C[C@]2(O)c2cccc(F)c2)CC1 | – | –
7.42 | 7.70 | C=CCN(C(=O)NCc1ccc(C(F)(F)F)cc1)C1CCN(C[C@H]2CN(C(=O)C3CCCC3)C[C@]2(O)c2ccc(F)cc2)CC1 | – | –
8.86 | 8.22 | C=CCN(C(=O)NCc1ccc(C(F)(F)F)cc1)C1CCN(C[C@H]2CN(C(=O)C3CCCC3)C[C@]2(O)c2cccc(F)c2)CC1 | – | –
7.95 | < 7.00 | C=CCN(C(=O)Cc1ccc(S(=O)(=O)NC)cc1)C1CCN(C[C@H]2CN(C(=O)C3CCCC3)C[C@]2(O)c2ccc(F)cc2)CC1 | – | –
8.53 | 8.35 | C=CCN(C(=O)Cc1ccc(S(=O)(=O)NC)cc1)C1CCN(C[C@H]2CN(C(=O)C3CCCC3)C[C@]2(O)c2cccc(F)c2)CC1 | – | –
8.17 | > 11.30 | C=CCN(C(=O)NCc1ccc(C(F)(F)F)cc1)[C@H]1C[C@H]2CC[C@@H](C1)N2C[C@H]1CN(C(=O)C2CCCC2)C[C@]1(O)c1cccc(F)c1 | 89.5% | 12500 nM
7.94 | 11.26 | C=CCN(C(=O)NCc1ccc(S(=O)(=O)N(C)C)cc1)[C@H]1C[C@H]2CC[C@@H](C1)N2C[C@H]1CN(C(=O)C2CCCC2)C[C@]1(O)c1cccc(F)c1 | 31.3% | 55000 nM
7.52 | 8.76 | C=CCN(C(=O)NCc1ccc(F)cc1)[C@H]1C[C@H]2CC[C@@H](C1)N2C[C@H]1CN(C(=O)C2CCCC2)C[C@]1(O)c1cccc(F)c1 | – | 42000 nM
7.84 | < 7.00 | C=CCN(C(=O)NCc1ccc(C(F)(F)F)cc1)[C@@H]1C[C@H]2CC[C@@H](C1)N2C[C@H]1CN(C(=O)C2CCCC2)C[C@]1(O)c1cccc(F)c1 | 88.6% | 103000 nM
– | > 9.40 | C=CCN(C(=O)OCc1ccc([N+](=O)[O-])cc1)C1CCN(C[C@H]2CN(C(=O)C3CCCC3)C[C@]2(O)c2ccccc2)CC1 [NIFEVIROC] | – | –

Source: ChEMBL document CHEMBL1221291, “Studies on the structure-activity relationship of 1,3,3,4-tetra-substituted pyrrolidine embodied CCR5 receptor antagonists. Part 2: Discovery of highly potent anti-HIV agents” (Bioorg Med Chem Lett, 2010)
